Source: ChEMBL document CHEMBL5500332, “Structure-based approaches for the design of 6-aryl-1-(3,4,5-trimethoxyphenyl)-1H-benzo[d][1,2,3]triazoles as tubulin polymerization inhibitors” (Eur J Med Chem, 2024)
Active and inactive are the calls of the source. No cut-off for these calls is given here.

Key:
MCF7 [1] = assay: Induction of apoptosis in human MCF7 cells assessed as early apoptotic cells at 20 nM incubated for 48 hrs by annexin V-FITC and PI staining based flow cytometry analysis (reference value: 2.17%); format: functional
Tubulin (Homo sapiens) [2] = molecular target: T1, Tubulin (Homo sapiens) (UniProt P68371+Q9H4B7+P0DPH7+P68366+Q13509+Q71U36+P04350+Q3ZCM7+P07437+P68363+Q9BQE3+Q6PEY2+Q13885+Q9BVA1+Q9BUF5); assay: Inhibition of tubulin polymerization (unknown origin) measured every 60 secs for 90 mins by microplate reader based analysis; format: protein-complex assay; conditions: dose 1-8 µM
MCF7 [3] = assay: Induction of cell cycle arrest in human MCF7 cells assessed as accumulation of cells at S phase at 20 nM incubated for 24 hrs by PI staining based flow cytometry analysis (reference value: 14.58%); format: functional
MCF7 [4] = assay: Induction of cell cycle arrest in human MCF7 cells incubated for 24 hrs by PI staining based flow cytometry analysis; format: functional; conditions: dose 20-60 nM
MCF7 [5] = assay: Induction of cell cycle arrest in human MCF7 cells assessed as accumulation of cells at G0/G1 phase at 60 nM incubated for 24 hrs by PI staining based flow cytometry analysis (reference value: 69.67%); format: functional
Tubulin (Homo sapiens) [6] = molecular target: T1, Tubulin (Homo sapiens); assay: Disruption of microtubule network in human MCF7 cells incubated for 24 hrs by immunofluorescence staining based confocal microscopic analysis; format: cell-based
[7] = Toxicity in BALB/c mouse assessed as effect on kidney at 5 to 15 mg/kg, iv measured after 2 weeks by H and E staining based analysis; format: organism-based; conditions: in vivo, 336 h, dose 5-15 mg/kg
[8] = Toxicity in BALB/c mouse assessed as drug tolerance at 5 to 15 mg/kg, iv measured after 2 weeks; format: organism-based; conditions: in vivo, 336 h, dose 5-15 mg/kg
MCF7 [9] = assay: Induction of cell cycle arrest in human MCF7 cells assessed as accumulation of cells at S phase at 60 nM incubated for 24 hrs by PI staining based flow cytometry analysis (reference value: 14.58%); format: functional
MCF7 [10] = assay: Induction of apoptosis in human MCF7 cells assessed as early apoptotic cells at 60 nM incubated for 48 hrs by annexin V-FITC and PI staining based flow cytometry analysis (reference value: 2.17%); format: functional
MCF7 [11] = assay: Induction of apoptosis in human MCF7 cells assessed as late apoptotic cells at 40 nM incubated for 48 hrs by annexin V-FITC and PI staining based flow cytometry analysis (reference value: 2.22%); format: functional
[12] = Toxicity in BALB/c mouse assessed as effect on lung at 5 to 15 mg/kg, iv measured after 2 weeks by H and E staining based analysis; format: organism-based; conditions: in vivo, 336 h, dose 5-15 mg/kg
MCF7 [13] = assay: Induction of cell cycle arrest in human MCF7 cells assessed as accumulation of cells at G2/M phase at 40 nM incubated for 24 hrs by PI staining based flow cytometry analysis (reference value: 14.36%); format: functional
MCF7 [14] = assay: Induction of cell cycle arrest in human MCF7 cells assessed as accumulation of cells at S phase at 40 nM incubated for 24 hrs by PI staining based flow cytometry analysis (reference value: 14.58%); format: functional
MCF7 [15] = assay: Induction of apoptosis in human MCF7 cells assessed as viable cells at 40 nM incubated for 48 hrs by annexin V-FITC and PI staining based flow cytometry analysis (reference value: 92.4%); format: functional; conditions: read-out: Activity
MCF7 [16] = assay: Inhibition of cell migration in human MCF7 cells at 20 to 40 nM incubated for 24 hrs by wound healing assay; format: functional, cell-based; conditions: dose 20-40 nM
[17] = Toxicity in BALB/c mouse assessed as effect on spleen at 5 to 15 mg/kg, iv measured after 2 weeks by H and E staining based analysis; format: organism-based; conditions: in vivo, 336 h, dose 5-15 mg/kg
MCF7 [18] = assay: Antiproliferative activity against human MCF7 cells measured after 72 hrs by MTT assay; format: functional, cell-based; conditions: MCF7, 72 h
[19] = Toxicity in BALB/c mouse assessed as effect on heart at 5 to 15 mg/kg, iv measured after 2 weeks by H and E staining based analysis; format: organism-based; conditions: in vivo, 336 h, dose 5-15 mg/kg
[20] = Toxicity in BALB/c mouse assessed as effect on liver at 5 to 15 mg/kg, iv measured after 2 weeks by H and E staining based analysis; format: organism-based; conditions: in vivo, 336 h, dose 5-15 mg/kg
MCF7 [21] = assay: Induction of apoptosis in human MCF7 cells assessed as late apoptotic cells at 60 nM incubated for 48 hrs by annexin V-FITC and PI staining based flow cytometry analysis (reference value: 2.22%); format: functional
4T1 [22] = assay: Antiproliferative activity against mouse 4T1 cells measured after 72 hrs by MTT assay; format: functional, cell-based; conditions: 4T1, 72 h
A549 = assay: Antiproliferative activity against human A549 cells measured after 72 hrs by MTT assay; format: functional, cell-based; conditions: A549, 72 h
MCF7 [23] = assay: Induction of apoptosis in human MCF7 cells assessed as viable cells at 60 nM incubated for 48 hrs by annexin V-FITC and PI staining based flow cytometry analysis (reference value: 92.4%); format: functional; conditions: read-out: Activity
[24] = Toxicity in BALB/c mouse assessed as effect on body weight loss at 5 to 15 mg/kg, iv measured after 2 weeks; format: organism-based; conditions: in vivo, 336 h, dose 5-15 mg/kg
MCF7 [25] = assay: Induction of apoptosis in human MCF7 cells assessed as necrotic cells at 40 nM incubated for 48 hrs by annexin V-FITC and PI staining based flow cytometry analysis (reference value: 2.25%); format: functional
MCF7 [26] = assay: Induction of apoptosis in human MCF7 cells assessed as viable cells at 20 nM incubated for 48 hrs by annexin V-FITC and PI staining based flow cytometry analysis (reference value: 92.4%); format: functional; conditions: read-out: Activity
MCF7 [27] = assay: Induction of cell cycle arrest in human MCF7 cells assessed as accumulation of cells at G2/M phase at 60 nM incubated for 24 hrs by PI staining based flow cytometry analysis (reference value: 14.36%); format: functional
MCF7 [28] = assay: Inhibition of colony formation in human MCF7 cells at 60 nM measured after 24 hrs by crystal violet staining based analysis relative to control; format: functional
4T1 [29] = assay: Antitumor activity against mouse 4T1 cells xenografted in BALB/c mouse model assessed as tumor growth inhibition rate at 5 mg/kg, iv measured every two days for 2 weeks relative to control; format: functional; conditions: 4T1, 336 h, read-out: TGI
MCF7 [30] = assay: Induction of apoptosis in human MCF7 cells assessed as late apoptotic cells at 20 nM incubated for 48 hrs by annexin V-FITC and PI staining based flow cytometry analysis (reference value: 2.22%); format: functional
MCF7 [31] = assay: Induction of cell cycle arrest in human MCF7 cells assessed as accumulation of cells at G0/G1 phase at 40 nM incubated for 24 hrs by PI staining based flow cytometry analysis (reference value: 69.67%); format: functional
MCF7 [32] = assay: Induction of apoptosis in human MCF7 cells assessed as early apoptotic cells at 40 nM incubated for 48 hrs by annexin V-FITC and PI staining based flow cytometry analysis (reference value: 2.17%); format: functional
MCF7 [33] = assay: Induction of apoptosis in human MCF7 cells assessed as necrotic cells at 20 nM incubated for 48 hrs by annexin V-FITC and PI staining based flow cytometry analysis (reference value: 2.25%); format: functional
MCF7 [34] = assay: Induction of apoptosis in human MCF7 cells incubated for 48 hrs by annexin V-FITC and PI staining based flow cytometry analysis; format: functional, cell-based; conditions: dose 20-60 nM
MCF7 [35] = assay: Induction of cell cycle arrest in human MCF7 cells assessed as accumulation of cells at G0/G1 phase at 20 nM incubated for 24 hrs by PI staining based flow cytometry analysis (reference value: 69.67%); format: functional
MCF7 [36] = assay: Induction of apoptosis in human MCF7 cells assessed as necrotic cells at 60 nM incubated for 48 hrs by annexin V-FITC and PI staining based flow cytometry analysis (reference value: 2.25%); format: functional
MCF7 [37] = assay: Inhibition of colony formation in human MCF7 cells measured after 24 hrs by crystal violet staining based analysis; format: functional, cell-based; conditions: dose 20-40 nM
MCF7 [38] = assay: Induction of cell cycle arrest in human MCF7 cells assessed as accumulation of cells at G2/M phase at 20 nM incubated for 24 hrs by PI staining based flow cytometry analysis (reference value: 14.36%); format: functional
4T1 [39] = assay: Antitumor activity against mouse 4T1 cells xenografted in BALB/c mouse model assessed as tumor growth inhibition rate at 15 mg/kg, iv measured every two days for 2 weeks relative to control; format: functional; conditions: 4T1, 336 h, read-out: TGI
SGC-7901 = assay: Antiproliferative activity against human SGC-7901 cells measured after 72 hrs by MTT assay; format: functional, cell-based; conditions: SGC-7901, 72 h

Structure (SMILES): COc1ccc(-c2ccc3nnn(-c4cc(OC)c(OC)c(OC)c4)c3c2)cc1O
- Activity (MCF7 [1]): 5.47%
- inhibition (Tubulin (Homo sapiens) [2]): Dose-Dependent Effect
- Activity (MCF7 [3]): 22.71%
- Activity (MCF7 [4]): Dose-Dependent Effect
- Activity (MCF7 [5]): 27.42%
- Activity (Tubulin (Homo sapiens) [6]): Active
- Activity [7]: Non-Toxic
- Activity [8]: Non-Toxic
- Activity (MCF7 [9]): 21.52%
- Activity (MCF7 [10]): 26.4%
- Activity (MCF7 [11]): 10.1%
- Activity [12]: Non-Toxic
- Activity (MCF7 [13]): 26.14%
- Activity (MCF7 [14]): 34.21%
- viability at 0.04 µM (MCF7 [15]): 62.9%
- inhibition (MCF7 [16]): Active
- Activity [17]: Non-Toxic
- IC50 (MCF7 [18]): 0.02 µM
- Activity [19]: Non-Toxic
- Activity [20]: Non-Toxic
- Activity (MCF7 [21]): 10.6%
- IC50 (4T1 [22]): 0.032 µM
- IC50 (A549): 0.045 µM
- viability at 0.06 µM (MCF7 [23]): 60.9%
- Activity [24]: Non-Toxic
- Activity (MCF7 [25]): 2.07%
- viability at 0.02 µM (MCF7 [26]): 83.6%
- Activity (MCF7 [27]): 50.23%
- inhibition at 0.06 µM (MCF7 [28]): 100%
- inhibition in vivo at 5 mg/kg (4T1 [29]): 49.5%
- Activity (MCF7 [30]): 8.16%
- Activity (MCF7 [31]): 38.73%
- Activity (MCF7 [32]): 24.9%
- Activity (MCF7 [33]): 2.8%
- Activity (MCF7 [34]): Dose-Dependent Effect
- Activity (MCF7 [35]): 60.54%
- Activity (MCF7 [36]): 2.05%
- inhibition (MCF7 [37]): Dose-Dependent Effect
- Activity (MCF7 [38]): 14.84%
- inhibition in vivo at 15 mg/kg (4T1 [39]): 68.5%
- IC50 (SGC-7901): 0.014 µM
